{
  "source": "patent US20060246153A1",
  "about": "“Herbal compositions for the teatment and prevention of prostate disorders” (priority 2003, published 2006)",
  "origin": "cited, not measured here",
  "system": "localised prostate adenocarcinoma",
  "conditions": "28 mg a day in the diet for three weeks",
  "data": [
    {"smiles": "CC(C)=CCC/C(C)=C/C=C/C(C)=C/C=C/C(C)=C/C=C/C=C(C)/C=C/C=C(C)/C=C/C=C(\\C)CCC=C(C)C", "note": "[lycopene]", "values": [
      {"measurement": "oxidative damage to the DNA of the post-operative biopsy tissue", "value": "greatly reduced"},
      {"measurement": "plasma levels of PSA (prostate-specific antigen)", "value": "reduced"}
    ]}
  ]
}
